Experimental data: patent publication US20230158068A1 (priority 2020, published 2023)

What was measured:
[1] = system: differentiated U937 cells; assay: Phospholipidosis accumulation in differentiated U937 cells in co-culture set ups (HCS LipidTOX Green); type: cell-based, human; conditions: 10 μM amiodarone; differentiated U937 cells in three co-culture set ups
Protocol: The phospholipid accumulation was assessed using HCS LipidTOX™ Green phospholipidosis detection reagent. Phospholipidosis accumulation was detected in differentiated U937 cells cultured in LLI in three different co-culture set ups: A) Type I/II cells cultured in mixed 10:1 ratio in apical compartment, differentiated U937 (lilac) cells cultured at the basolateral compartment B) Type I/II cells cultured as a layers in a 10:1 ratio in apical compartment, differentiated U937 cells cultured at the basolateral compartment (blue), C) Type I cells cultured in the apical compartment and differentiated U937 cells were seeded on the underside of Transwell® inserts (green). […] A total of 5000 events were acquired on the flow cytometer.

[2] = system: U937 cells; assay: CD marker expression in PMA treated U937 cells (flow cytometry); type: cell-based, human
Protocol: Human monocytic U937 cells derived from pleural effusion were seeded at 5×10^5 cells/mL in a 24 well plate or on the underside of a culture insert with 3.25×10^5 cells per well with 100 nM phorbol 12-myristate 13-acetate (PMA) (dissolved in DMSO; <1% v/v) in complete RPMI medium (10% v/v FBS, 1% v/v penicillin-streptomycin, 2 mM L-glutamine). Cells were incubated for 72 h at 37° C., 5% v/v CO2 in a humidified incubator to differentiate the cells to mature macrophages. Following PMA incubation, media was replaced with fresh CCM and incubated for a further 24 h rest period. After the 24 h rest phase, U937/MØ were ready for co-culture assembly. U937/MØ cells were prepared in line with when epithelial cells were ready, i.e. day 5 for A549 and day 10 for hAELVi cells.
FIG. 3 illustrates the expression profiles of selected CD markers in PMA treated U937 cells and primary alveolar macrophages (pAM). CD markers are: (A) CD 11a, (B) CD 11b, (C) CD 14, (D) CD 36 and (E) CD 206. U937 cells treated with (0 nM, 5 nM, and 100 nM) PMA for 24 h to-96 h followed by a 24 h rest period in fresh culture medium. Expression of CD markers was measured by flow cytometry and are presented as median fluorescent intensity (MFI±SEM). […]

[3] = system: U937 cells; assay: Phagocytic activity of PMA treated U937 cells; type: cell-based, human; conditions: 72 h, 100 nM PMA differentiation protocol
Description: FIG. 4 illustrates the phagocytic activity of PMA treated U937 cells and primary alveolar macrophages (pAM). Percentage of phagocytic cells (mean±SEM) from PMA treated U937 cells. (n=9) for each time point for U937 cells and n=3 for primary cells.

[4] = system: U937 cells; assay: Morphology of U937 cells with exposure to PMA; type: cell-based, human; conditions: 72 h, 100 nM PMA differentiation protocol
Protocol: FIG. 5 illustrates the morphology of U937 cells with exposure to PMA. U937 cells were cultured on chamber slides with medium supplemented with either 0 nM, 5 nM or 100 nM PMA and incubated for 24 h, 48 h, 72 h and 96 h followed by a 24 h recovery phase in fresh medium. Non-adherent PMA naive cells required centrifuge preparation. Primary human alveolar macrophages were harvested for morphological comparison. The cells were photographed at ×400 magnification with an inverted light microscope. (50 um scale bar).

[5] = system: U937 cells; assay: Long-term proliferation of PMA treated U937 cells (Guava ViaCount assay); type: cell-based, human; conditions: 100 nM PMA
Protocol: FIG. 6 illustrates the long-term proliferation of PMA treated U937 cells. […] Cell proliferation was assessed using Guava ViaCount assay via flow cytometry for 10,000 events. Results shown are representative for two repeated experiments performed in triplicate. Viable cells/mL are shown as mean±SD.

[6] = system: differentiated U937 cells (MØ), T I model, T II model; assay: CD marker expression in LPS stimulated alveoli models (flow cytometry); type: cell-based, human; conditions: 10 ng/mL LPS, 24 h
Protocol: FIG. 17 illustrates CD marker expressions in LPS stimulated and non-stimulated alveoli models. Differentiated U937 cells (MØ), MØ cells cultured with hAELVi cells (T I model) or A549 cells (T II model) exposed to 10 ng/mL LPS (+LPS) for 24 h. Direct immunofluorescent staining assays for CD 11 b (A &C) and CD 36 (B & D) surface markers were performed using flow cytometry. A total of 5000 gated events were collected for each sample. MFI (median fluorescent intensity) data shown as mean±sd (n=9) for 3 independent models for Dunnett's post hoc test after one-way ANOVA where *#:p<0.005, *** :p<0.0001 vs MØ and MØ+LPS respectively.

[7] = system: MØ, T I model, T II model; assay: Human cytokine profile of mono-culture and co-culture models in LPS (array membranes); type: cell-based; conditions: LPS 100 ng/mL, 24 h
Protocol: FIG. 18 illustrates human cytokine profile of lower airway for ALI cell models. Detection of spots on array membranes from supernatant collect from mono-culture and co-cultures of: differentiated U937 cells (MØ) with LPS (MØ+LPS), hAELVi TI cells (T I), A549 TII cells (T II), type I co-culture model: hAELVi and MØ (T I model) with LPS (T I model+LPS), type II co-culture model: A549 and MØ (T II model) with LPS (T II model+LPS). Models were untreated or stimulated with 100 ng/mL LPS for 24 h. Controls are shown as positive (green) and negative (red). Data represents four independent Transwell® inserts. […] The data analysed in more detail in below figures.
FIG. 21 illustrates human cytokine profile of lower airway; T I &T I I models in the presence of LPS. […] Data represents mean signal intensity (AU) of each protein spot from the blot detected using chemiluminescence imaging and quantified using imageJ software for four independent Transwell® inserts±sd. […]
FIG. 22 illustrates human cytokine profile of lower airway of mono-culture and co-culture models in LPS. […] Data analysed by two-way ANOVA with Bonferroni post hoc test of non-stimulated cells vs LPS stimulation. […]

[8] = system: differentiated U937 cells (MØ); assay: Phagocytic activity of differentiated U937 cells in mono-culture and co-cultures in the presence of LPS; type: cell-based, human; conditions: 10 ng/mL LPS, 24 h; both co-culture systems
Protocol: FIG. 23 illustrates a comparison of macrophages in mono-culture and co-cultures phagocytosis of microspheres. Differentiated U937 cells (MØ), MØ cells cultured with hAELVi cells (T I model) or A549 cells (T II model) exposed to 10 ng/mL LPS (+LPS) for 24 h. Phagocytosis assays were performed after 2 h incubation with 1.0 μm FluoSpheres™ Carboxylate-Modified microspheres using fluorescent microscopy. Images at 40× magnification. Scale bar is 100 μm.
FIGS. 24A and 24B illustrate phagocytic activity of differentiated U937 cells (MØ) in mono-culture and co-cultures in the presence of LPS. MØ cells cultured with hAELVi cells (T I model) or A549 cells (T II model) exposed to 10 ng/mL LPS (+LPS) for 24 h. Phagocytosis assays were performed after 2 h incubation with 1.0 μm FluoSpheres™ Carboxylate-Modified microspheres using flow cytometry. Cells were gated for 1000 events (A) per sample. […] Percentage of cells above the gated (R3) threshold (B) of mono and co-cultures. A one way ANOVA was used to determine significance for each treatment group and Tukey's multiple comparison post hoc test employed when* p<0.05, *** : p<0.0001 where n=3 independent models.

[9] = system: T I model (hAELVi + MØ), T II model (A549 + MØ); assay: LDH release from co-cultures with LPS (cell health); type: cell-based, human; conditions: 10 ng/mL LPS, 24 h; both co-culture models
Protocol: FIGS. 25A and 25B illustrate the comparison of mono-culture and co-culture construction on cell health. Percentage of maximum LDH released into supernatants from cell populations normalised to 0.1% v/v Triton-X 100 positive control. LDH released from co-cultures: (T I) hAELVi and (T II) A549 cells in co-culture with MØ cells were assessed (A). MØ cells cultured with hAELVi cells (T I model) or A549 cells (T II model) were exposed to 10 ng/mL LPS (+LPS) for 24 h (B). A one way ANOVA was used to determine significance for each treatment group and Tukey's multiple comparison post hoc test employed when* p<0.05, p<0.001 Data shown represent n=6 data points±SD of three independent cell model experiments.

[10] = system: hAELVi and A549 cells in co-culture with MØ cells; assay: TEER of alveolar epithelial cells in co-culture with LPS; type: cell-based, human; conditions: 10 ng/mL LPS, 24 h
Protocol: FIGS. 26A and 26B illustrate the impact of LPS on barrier properties of alveolar epithelial cells in co-culture. TEER measurements of (T I) hAELVi and (T II) A549 cells in co-culture with MØ cells. MØ cells cultured with hAELVi cells (T I model) or A549 cells (T II model) were exposed to 10 ng/mL LPS (+LPS) for 24 h. A one-way ANOVA was used to determine significance for each treatment group. Data shown represent n=3 of three independent cell model experiments (p>0.05).

[11] = system: co-culture models; assay: IL-8 secretion of co-culture models after LPS (ELISA); type: cell-based, human; conditions: 100 ng/ml LPS
Protocol: FIG. 36 illustrates extent of immune response using IL-8 secretion. […] IL-8 levels detected from supernatants of co-culture models cultured under LLI/ALI post exposure to 100 ng/ml LPS. The IL-8 levels were quantified using ELISA assay. […] N=4, * indicates (p<0.05).

## CCCCc1oc2ccccc2c1C(=O)c1cc(I)c(OCCN(CC)CC)c(I)c1 [amiodarone]
[1]
  phospholipidosis accumulation: detected

## CCCCCCCCCCCCCC(=O)O[C@@H]1[C@@H](C)[C@@]2(O)[C@@H](C=C(CO)C[C@]3(O)C(=O)C(C)=C[C@@H]23)[C@@H]2C(C)(C)[C@]12OC(C)=O [PMA, phorbol-12-myristate-13-acetate]
[2]; PMA treated U937 cells
  expression of CD36 and CD206 (M2 markers): low
[2]; U937 cells, 100 nM PMA, 72 h, 24 h rest, compared with primary human alveolar macrophages
  expression of cell surface markers selected to identify an alveolar macrophage phenotype (CD 11a, CD 11b, CD 14): optimally expressed
[3]
  phagocytic functionality: same phagocytic functionality of primary human alveolar macrophages
[4]
  cell morphology: most similar morphology to primary human alveolar macrophages
[5]; 24 h exposure
  cell proliferation: reduced
[5]; 96 h exposure
  cell proliferation: no

## lipopolysaccharide [LPS]
[6]
  macrophage activation (CD11 b expression, absence of CD36 expression): likely to drive the macrophages to M1 type activation
[7]
  cytokine markers (signal intensity on array): elevated
[8]
  ability to phagocytose (1.0 μm microspheres): retain their ability to phagocytose
[9]
  cell viability (LDH release): not adversely affected
[10]
  barrier properties of the alveolar type I epithelial cells (TEER): not compromised
[11]; all models
  IL-8 secretion: significantly increased
[11]; combination type I and II epithelial models
  IL-8 secretion: significantly elevated
